Experimental data as given in US20250325468A1, “PEPTIDE INHIBITING FORMATION OF SNARE COMPLEX AND USE THEREOF” (MEDYTOX INC., priority 2020, published 2025).
Values joined by “and” are separate entries in the source; they are usually repeats but may differ in a detail not shown here. Equal entries are not always repeated. Where no end group is shown, it is not given here.

Key:
[1] = Skin irritation test on artificial skin (MTT); format: cell-based; settings: human, artificial skin (Neoderm-ED, Tegoscience); FIG. 4; 20 μl of 100 μg/ml peptide; 50% or greater = no irritation; read-out: cell viability
Description: (§1) 1×PBS and 5% SDS were evenly applied to artificial skin (Neoderm-ED) purchased from Tegoscience (South Korea) to prepare a negative control and a positive control, respectively. An experimental group was evenly coated with 20 μl of 100 μg/ml C2-P4 peptide. After allowing the samples to react at room temperature for 15 minutes, the resultants were each transferred to the wells of a 12-well culture plate and cultured in an incubator of 37° C. and 5% CO2 for 15 minutes. Once the reaction was completed, the artificial skin was washed twice with PBS and transferred to the wells of a new 12-well culture plate and cultured for 42 hours. Once the culture was completed, 2 ml of 0.3 mg/ml MTT solution was added, and the cells were cultured for 3 hours. The sample in each well of the plate was decolorized by adding 0.04 N HCl-isopropanol, and placed in the Spectra MAX i3, and absorbance of the sample in each well was measured at 580 nm.
(§2) FIG. 4 is a graph showing the results of measuring effect of C2-P4 on skin irritation. […] Here, when the cell viability of a sample was 50% or greater, the sample was determined to have no irritation.

[2] = tested on: artificial skin (Neoderm-ED); experiment: Skin irritation test on artificial skin (MTT); format: cell-based; settings: FIG. 4; 20 μl of 100 μg/ml peptide; 50% or greater viability = no irritation
Description: as §1, §2

B16-F10 cells = experiment: Raw material toxicity test: MTT analysis; format: cell-based, mice; settings: FIG. 3; 12.5 μM, 25 μM and 50 μM, 48 hours
Description: B16-F10 cells purchased from the Korean Cell Line Bank were inoculated into 100 μL of a DMEM medium containing 10% FBS at a concentration of 1×10^4 cells/well in a 96-well plate and cultured for 48 hours. B16-F10 cells are a murine melanoma cell line derived from mice. These cells are adherent and have an epithelial morphology. Thereafter, the C2-P4 peptide was diluted in a DMEM culture medium at concentrations of 12.5 μM, 25 μM, and 50 μM to replace the medium, and the cells were cultured for 48 hours. After centrifuging the plate at 1,000 rpm for 10 minutes, the culture medium solution was removed. Each well was washed twice with PBS, and a 0.5 mg/ml MTT solution diluted in a DMEM medium was added thereto. The cells were cultured in an incubator of 37° C. and 5% CO2 for 2 hours. After centrifuging the plate at 1,000 rpm for 10 minutes, the MTT solution was removed. Each well was washed twice with PBS, and 150 μL of DMSO was added to dissolve the produced formazan. The plate was placed in a spectrometer (Spectra MAX i3), and absorbance of the sample in each well was measured at 590 nm.

MITF gene = MITF gene activity by real-time PCR; format: cell-based, mice; settings: Table 2; three replicates; C2-P4 10 μM, α-MSH 50 nM, 48 hours
Description: B16-F10 cells purchased from the Korean Cell Line Bank were inoculated into 3 mL of a DMEM medium containing 10% FBS at a concentration of 1×10^5 cells/well in a 6-well plate and cultured in an incubator of 37° C. and 5% CO2 for 24 hours to form a cell monolayer. The medium in a negative control was replaced with a DMEM medium, and the medium in peptide-treated experimental groups and α-MSH experimental groups was replaced with a medium containing 10 μM of each of the peptides and 50 nM of α-MSH, respectively, and then the cells were cultured for 48 hours. Each of the experimental groups was washed twice with PBS, the cells were obtained with trypsin-EDTA and centrifuged at 1500 rpm for 5 minutes to separate the cells. RNA was extracted from the separated cells using Trizol, and each 1,000 ng of cDNA was synthesized using reverse transcriptase. Using 100 ng of each of the synthesized cDNAs, the expression levels of GAPDH and […] were confirmed using real-time PCR. The primers used for the real-time PCR were SEQ ID NOs: 9 and 10. Alternatively, the polynucleotide sets of SEQ ID NOs: 11 and 12 were used.

Row | Substance | viability at 0.5 h, 100 µg/mL [1] | skin irritation [2] | cell viability compared to the negative control (scrambled peptide) (B16-F10 cells) | cytotoxicity (MTT assay) (B16-F10 cells) | MITF (real-time PCR value) (MITF gene)
1 | RRWRRWNRFNRRRCRRRLQQTQAQVDEVVDIM [C2-P4] | ~85% | no irritation | similar | no cytotoxicity | 
2 | α-MSH |  |  |  |  | 30.05 and 29.98 and 30.17
